This is an account of results in US8399106B2, “Composition and method for treating wood” (Kemira OyJ, priority 2007, dated 2013).

The conditions of series [1]: wood treated only with a chelating agent; as described in WO 0123154; cited from earlier work.
The test system of a further series is rot fungi. The series is described as follows: Rot resistance / wood protection class (EN 350-1), fungus not specified. Format: cell-based. The conditions noted are these: treated wood.
In series [2] the test system is Aureobasidium pullulans and Sclerophoma pithyophila (pooled suspension). The conditions noted are these: literature reference, 1.0% of NHA; cited from earlier work.

Procedure for rot fungi: Rot testing was carried out according to the EN 113 standard. 10 test samples impregnated with respective agents for each of the three rot fungi were used in the test. A sample made of surface wood of pine was placed as a control with the impregnated test samples to the same container for the rot test. Activity of each fungus was tested with eight test samples (so-called infection test). Said test samples for the fungus activity testing were placed in respective containers for the rot test without impregnated test samples.
In the method, an X value was calculated for each impregnation batch and for each fungus, said X value describing the ratio of the mass loss of the impregnated test samples to that of the unimpregnated control samples. X value was calculated by dividing the corrected mass loss of the impregnated test samples by that of the unimpregnated control samples. The calculation was based on mean values. Based on the result obtained, the rot resistance class was determined as follows for the fungus with the highest rot activity:

In the case of `O=C(O)CN(CCN(CC(=O)O)CC(=O)O)CC(=O)O` [EDTA, ethylenediaminetetraacetic acid], the “amounts washed out of wood, in words” value in series [1] was “so high”.

In the case of `O=C[O-].O=C[O-].[Ca+2]` [calcium formate], in the series with rot fungi, the “wood protection class (rot protection standard EN 350-1, classes 1-5)” value is listed as 3 (Class 3=reasonably resistant 0.30<X≦0.60).

Take `O=C1c2cccc3cccc(c23)C(=O)N1O` [NHA, N,N-naphthaloylhydroxylamine]: in series [2], the “Microbial growth 0 to 5” value is given as 4 (high amounts of microbial growth (more than 40% of the surface of the test sample covered by microbial growth)).
